From patent US7622469B2, “2,4-diamino-1,3,5-triazine derivatives” (Hamari Chemicals, Ltd., priority 2002, dated 2009)
≈ marks a conversion by molar mass, not a printed value.

Legend:
[1] = test system: E. coli NIHJ JC-2; assay: Bactericidal activity test (MBC, phenol coefficient measuring method); assay type: cell-based
Procedure: (§1) As a test bacterium, the same bacteria species as those of the antibacterial activity test were used; as a medium to be used, a SCD medium (manufactured by Eiken Chemical Co., Ltd.) was used for pre-culture medium; and a heart infusion bouillon medium (manufactured by Eiken Chemical Co., Ltd.) was used as a medium for growing a live bacterium in a test solution after bactericidal treatment. One platinum loop of a test bacterium was inoculated into 20 ml of a medium, and static culture was carried out at 37° C. for 18 to 20 hours, and the cells were adjusted with a sterilized physiological saline to 1×10^7/ml, which was used as a test bacterium solution.
(§2) Then, a solution of each compound in methanol was subjected to ½ stepwise dilution with sterilized water, each 5 ml was dispensed into a test tube, 0.5 ml of the previously prepared test bacterium solution was added thereto, and the mixture was blended well. After 1 minute, 3 minutes and 5 minutes has passed, 5 μl of the test solution was collected and inoculated into 2 ml of a heart infusion bouillon medium, this was cultured at 37° C. for 40 to 48 hours, and the presence or absence of growth of a bacterium was determined. A test was performed three times, a minimum concentration at which growth of a bacterium was not recognized two or more times was adopted as a minimal bactericidal concentration (MBC value).
(§3) Numerical values in Tables represent MBC expressed in μg/ml unit.

[2] = test system: P. aeruginosa PAO-1; assay: as above; assay type: cell-based
Procedure: as §1, §2, §3

[3] = test system: S. aureus 209PJC; assay: as above; assay type: cell-based
Procedure: as §1, §2, §3

[4] = test system: MRSA 97-115; assay: as above; assay type: cell-based, methicillin-resistant Staphylococcus aureus
Procedure: as §1, §2, §3

[5] = test system: E. coli NIHJ JC-2; assay: Antibacterial activity test (MIC); assay type: cell-based; conditions: Mueller-Hinton Broth, 37° C., 20 to 24 hours
Procedure, shortened: (§4)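 Broth dilution MIC per the Japanese Society of Chemotherapy standard method in Mueller-Hinton Broth. Strains were grown statically at 37° C for 16 to 20 hours and diluted in sterile saline to 10^5/ml. Compounds were dissolved in methanol and serially diluted twofold in medium, giving 100 μg/ml and 2^n-fold (n=−10 to 1).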

[6] = test system: P. aeruginosa PAO-1; assay: Antibacterial activity test (MIC); assay type: cell-based; conditions: Mueller-Hinton Broth, 37° C., 20 to 24 hours
Procedure, shortened: as §4

[7] = test system: S. aureus 209PJC; assay: Antibacterial activity test (MIC); assay type: cell-based; conditions: Mueller-Hinton Broth, 37° C., 20 to 24 hours
Procedure, shortened: as §4

[8] = test system: MRSA 97-115; assay: Antibacterial activity test (MIC); assay type: cell-based, methicillin-resistant Staphylococcus aureus; conditions: Mueller-Hinton Broth, 37° C., 20 to 24 hours
Procedure, shortened: as §4

Structure (SMILES)	minimal bactericidal concentration (MBC) ([1]; 1 min)	minimal bactericidal concentration (MBC) ([1]; 3 min)	minimal bactericidal concentration (MBC) ([1]; 5 min)	minimal bactericidal concentration (MBC) ([2]; 1 min)	minimal bactericidal concentration (MBC) ([2]; 3 min)	minimal bactericidal concentration (MBC) ([2]; 5 min)	minimal bactericidal concentration (MBC) ([3]; 1 min)	minimal bactericidal concentration (MBC) ([3]; 3 min)	minimal bactericidal concentration (MBC) ([3]; 5 min)	minimal bactericidal concentration (MBC) ([4]; 1 min)	minimal bactericidal concentration (MBC) ([4]; 3 min)	minimal bactericidal concentration (MBC) ([4]; 5 min)	minimal inhibitory concentration (MIC) [5]	minimal inhibitory concentration (MIC) [6]	minimal inhibitory concentration (MIC) [7]	minimal inhibitory concentration (MIC) [8]
CCCCCCCCCC1N=C(N)N=C(N)N1c1ccc(C(C)(C)C)cc1.Cl (centres unmarked) [compound 22]	6.3 mg/L	6.3 mg/L	6.3 mg/L	12.5 mg/L	3.1 mg/L	3.1 mg/L	12.5 mg/L	6.3 mg/L	6.3 mg/L	25 mg/L	25 mg/L	12.5 mg/L	25 mg/L	25 mg/L	0.8 mg/L	0.8 mg/L
CCCCCCCCCCC1N=C(N)N=C(N)N1c1ccc(F)c(F)c1F.Cl (centres unmarked) [compound 31]	12.5 mg/L	12.5 mg/L	6.3 mg/L	12.5 mg/L	12.5 mg/L	6.3 mg/L	25 mg/L	12.5 mg/L	12.5 mg/L	25 mg/L	12.5 mg/L	6.3 mg/L	12.5 mg/L	25 mg/L	1.6 mg/L	3.1 mg/L
CCCCCCCCNC1=NC(C)(C)N=C(NCc2ccc(C)cc2)N1 [compound 37]	12.5 mg/L (≈ 35 µM)	6.3 mg/L (≈ 17.6 µM)	3.1 mg/L (≈ 8.67 µM)	3.1 mg/L (≈ 8.67 µM)	3.1 mg/L (≈ 8.67 µM)	3.1 mg/L (≈ 8.67 µM)	12.5 mg/L (≈ 35 µM)	6.3 mg/L (≈ 17.6 µM)	6.3 mg/L (≈ 17.6 µM)	25 mg/L (≈ 69.9 µM)	25 mg/L (≈ 69.9 µM)	12.5 mg/L (≈ 35 µM)	12.5 mg/L (≈ 35 µM)	25 mg/L (≈ 69.9 µM)	0.8 mg/L (≈ 2.24 µM)	1.6 mg/L (≈ 4.47 µM)
Br.CCCCCCCCCNC1=NC(C)(C)N=C(NCc2ccccc2)N1 [compound 49]	12.5 mg/L	6.3 mg/L	3.1 mg/L	12.5 mg/L	3.1 mg/L	3.1 mg/L	12.5 mg/L	6.3 mg/L	6.3 mg/L	25 mg/L	12.5 mg/L	12.5 mg/L	12.5 mg/L	25 mg/L	0.4 mg/L	0.8 mg/L
CC(=O)O.CCCCCCCCCNC1=NC(C)(C)N=C(NCCc2ccccc2)N1 [compound 56]	12.5 mg/L	3.1 mg/L	3.1 mg/L	12.5 mg/L	3.1 mg/L	1.6 mg/L	25 mg/L	12.5 mg/L	6.3 mg/L	25 mg/L	12.5 mg/L	6.3 mg/L	12.5 mg/L	12.5 mg/L	0.4 mg/L	0.8 mg/L
CC(=O)O.CCCCCCCCNC1=NC(C)(C)N=C(NCC2CCCCC2)N1 [compound 65]	3.1 mg/L	1.6 mg/L	1.6 mg/L	3.1 mg/L	1.6 mg/L	1.6 mg/L	12.5 mg/L	3.1 mg/L	3.1 mg/L	25 mg/L	12.5 mg/L	12.5 mg/L	25 mg/L	50 mg/L	0.8 mg/L	0.8 mg/L
CC(=O)O.CCCCCCCNC1=NC(C)(C)N=C(NCCCCCCC)N1 [compound 69]	6.3 mg/L	3.1 mg/L	3.1 mg/L	3.1 mg/L	1.6 mg/L	1.6 mg/L	6.3 mg/L	6.3 mg/L	3.1 mg/L	25 mg/L	25 mg/L	12.5 mg/L	12.5 mg/L	50 mg/L	0.8 mg/L	0.8 mg/L
CCCCCCCCCCCCCCNC1=NC(C)(C)N=C(N)N1.Cl [compound 72]	6.3 mg/L	3.1 mg/L	3.1 mg/L	3.1 mg/L	1.6 mg/L	1.6 mg/L	3.1 mg/L	1.6 mg/L	1.6 mg/L	25 mg/L	12.5 mg/L	12.5 mg/L	25 mg/L	25 mg/L	0.8 mg/L	1.6 mg/L
